Patent publication US20180050114A1, “HER2 APTAMER-ANTICANCER DRUG COMPLEX FOR CANCER CELL CHEMOTHERAPY” (priority 2016, published 2018)
{SH} = thiol (OH replaced by SH), used for disulfide linkage to DM1

Legend:
[1] = tested on: HER2-negative breast cancer cell lines (MCF7, T47D); experiment: Apoptosis rate (sub-G1%) by PI DNA content flow cytometry, HER2-negative cell lines; assay type: cell-based; conditions: 10 nM, 72 hr (FIG. 5)
Method: (§1) Thereafter, the apoptosis rate (sub-G1%) of cancer cells was measured through DNA content analysis using flow cytometry.
(§2) (2) Typically, the cell cycle includes, depending on the amount of DNA in cells, G1 (cell growth phase)-S (cell replication phase)-G2/M (cell mitotic phase). […] The results of apoptosis are represented by the percentage of sub-G1 in the cell cycle.

[2] = tested on: HER2-positive breast cancer cell lines (SKBR3, BT474, MDA-MB-453); experiment: Apoptosis rate (sub-G1%) by PI DNA content flow cytometry, HER2-positive cell lines; assay type: cell-based; conditions: 10 nM, 72 hr (FIG. 5); for apoptosis rate (sub-G1%): HER2-positive cell lines SKBR3, BT474, MDA-MB-453
Method: as §1, §2

[3] = tested on: HER2-positive breast cancer BT474 cell line and HER2-negative breast cancer T47D cell line, co-cultured 1:1; experiment: p-His3 (mitotic arrest marker) ICC in co-cultured HER2-positive and HER2-negative cells; assay type: cell-based; conditions: for expression of p-His3 depending on HER2 expression (confocal images): BT474/T47D co-culture 1:1, 10 nM, 24 hr (FIG. 3)
Method: (2) HER2 and a mitotic arrest marker, namely phospho-Histone H3 (p-His3), were stained with ICC, and the HER2-positive breast cancer BT474 cell line and the HER2-negative breast cancer T47D cell line, the nuclei of which were stained with DAPI, were co-cultured at a ratio of 1:1 and treated with a control (DMSO), DM1, and Aptamer-DM1 at a concentration of 10 nM for 24 hr. Thereafter, the nuclei (blue), p-His3 (green), and HER2 (red) were imaged using a confocal microscope. The number of cells in which p-His3 was detected was quantified based on whether HER2 was expressed or not.

HER2 = biological target: T1, HER2 (Homo sapiens, UniProt P04626); experiment: Confocal ICC of HER2 localisation / cellular internalization in BT474 cells; assay type: cell-based; conditions: BT474 cell line, 10 nM, 48 hr, confocal microscope (FIGS. 2A to 2L)
T1 construct: endogenous in cells; host or cells: BT474 breast cancer cells
Method: (2) The cells cultured on 8-well chamber slides were fixed with 4% paraformaldehyde, washed with PBS, and cultured for 10 min with 0.2% Triton X-100. Thereafter, the cells were cultured overnight at 4° C. with primary antibodies in an antibody dilution buffer and then cultured at room temperature for 2 hr with fluorescence-conjugated secondary antibodies. Thereafter, the cells were mounted on ProLong Gold Antifade Reagent containing DAPI (4′,6′-diamidine-2′-phenylindole dihydrochloride). Particularly, each of the cultured breast cancer cell lines was subjected to immunocytochemistry (ICC) using a HER2 antibody, the nucleus thereof was stained with DAPI, and HER2 (red) and nucleus (blue) regions were imaged using a confocal microscope.
(1) ICC was performed using the HER2 antibody.

JIMT-1 cell line = experiment: Western blot of HER family / AKT signalling in JIMT-1 cells; assay type: cell-based; conditions: JIMT-1, 10 nM, 72 hr, compared to control, DM1 and Aptamer (FIG. 10)
BT474-Tra cells = experiment: Drug-resistant disease animal model, BT474-Tra tumors; assay type: in vivo, BALB/c nude mice; conditions: BT474-Tra transplanted mice, 1 mg/kg intraperitoneally, 15 days (FIG. 11)
Method: (§3) Thereafter, the tumor volume was measured for 15 days. The results are shown in FIG. 11, and the results of in-vivo bioluminescence imaging of JIMT-1-transplanted mice are shown in FIG. 12. In-vivo bioluminescence imaging was performed in a manner in which the mice were anesthetized and administered with 150 mg/kg of luciferin, after which the tumor size and the transition state were measured using a bioluminescence imaging system.

[4] = tested on: Trastuzumab-resistant BT474 cell line (BT474-Tra); experiment: Western blot of HER family / AKT signalling in Trastuzumab-resistant BT474 cells; assay type: cell-based; conditions: 10 nM
Method: For the BT474 and BT474-Tra cell lines, the expression of p185HER2, p95HER2, p-HER2, p-p95HER2, HERS, p-HER3, total-AKT, p-AKT, and PARP was analyzed via Western blot. Cell viability was measured using a CellTiter 96* Aqueous One Solution Cell Proliferation Assay [MTS, 3-(4,5-dimethylthiazol-2-yl)-5-(3-carboxymethoxyphenyl)-2-(4-sulfophenyl)-2H-tetrazolium], and the amount of produced formazan was determined by measuring absorbance at 490 nm using a Spectramax Plus 384 microplate analyzer. In the Western blot, the above cells were lysed in a lysis buffer (30 mM NaCl, 0.5% Triton X-100, 50 mM Tris-HCl; pH 7.4) containing phosphatase and a protease inhibitor, and the supernatant was collected and then the protein was […] using a Bradford protein assay kit. 30 μg of the protein was subjected to SDS-PAGE and electrophoresed with a nitrocellulose membrane. The membrane was cultured overnight at 4° C. with primary antibodies diluted in bovine serum albumin (BSA) and then cultured with horseradish peroxidase (HRP)-conjugated rabbit IgG (1:3000-1:10,000). Signal intensity was measured using an Enhanced Chemiluminescence Kit and an X-ray film, and quantified with AlphaEaseFC software.

JIMT-1 cells = experiment: Drug-resistant disease animal model, JIMT-1 tumors (tumor volume, bioluminescence imaging); assay type: in vivo, BALB/c nude mice
Method: as §3

[5] = tested on: HER2-positive BT474 tumors (compared with HER2-negative T47D tumors); experiment: Breast cancer animal model, tumor volume and TUNEL assay; assay type: in vivo, BALB/c nude mice; conditions: 1 mg/kg, 2 mg/kg intraperitoneally three times a week
Method: (1) To the fourth breast fat pads of immunodeficient 6-week-old female BALB/c nude mice, HER2-positive BT474 cancer cells (3×10^6 cells) and HER2-negative T47D cancer cells (3×10^6 cells) were transplanted, after which Aptamer-DM1 (1 mg/kg, 2 mg/kg, body weight) was intraperitoneally administered three times a week. Then, the tumor volume was measured for 18 days. The tumor volume (V) was measured using a caliper and calculated according to V=(length×width^2)/2. In the TUNEL assay, the tumors were removed from the mice, fixed with 10% neutral-buffered formalin and embedded in paraffin. The 4 μm thick tissue section was mounted on a positively charged glass slide, deparaffinized with xylene, and […] through a graded alcohol series. After antigen retrieval, the above tissue section was boiled in a citric acid buffer (pH 6.0) and immunofluorescence was performed. In situ TUNEL was performed on the above tissue section using a TUNEL kit (Roche Applied Sciences, Penzberg, GER), and the images thereof were obtained using a confocal scanning microscope.

[6] = BT474/T47D co-culture, 10 nM, 24 hr (FIG. 4)

Row | Molecule | apoptosis rate (sub-G1%) [1] | apoptosis rate (sub-G1%) [2] | expression of p-His3 depending on HER2 expression (confocal images) [3] | proportions of cells in which p-His3 was detected, HER2-positive cell line versus HER2-negative cell line [3, 6] | HER2 localisation (cell membrane expression vs cellular internalization) (HER2) | expression of full-length p185HER2, phospho-HER2 (Tyr1221), HER3, phospho-HER3, AKT and phospho-Akt (Ser 43) (JIMT-1 cell line) | tumor volume (BT474-Tra cells) | expression of p95HER2 ([4]; BT474-Tra cells, 72 hr (FIG. 10)) | expression of full-length p185HER2, phospho-HER2 (Tyr1221), HER3, phospho-HER3, AKT and phospho-Akt (Ser 43) ([4]; BT474-Tra, 72 hr, compared to control, DM1 and Aptamer (FIG. 10)) | apoptosis rate compared to the DM1-treated group ([2]; HER2-positive cell lines) | luciferin intensity (in-vivo bioluminescence imaging) (JIMT-1 cells; JIMT-1-transplanted mice, 1 mg/kg intraperitoneally (FIG. 12)) | tumor volume (JIMT-1 cells; JIMT-1 transplanted mice, 1 mg/kg intraperitoneally, 15 days (FIG. 11)) | proportion of cells in which p-His3 was detected, HER2-negative cell line [3, 6] | proportion of cells in which p-His3 was detected, HER2-positive cell line [3, 6] | tumor growth (tumor volume) ([5]; 18 days, BT474 and T47D transplanted tumors (FIG. 6)) | apoptosis in tumors (TUNEL assay) ([5]; BT474 and T47D tumors (FIG. 7))
1 | COc1cc2cc(c1Cl)N(C)C(=O)C[C@H](OC(=O)[C@H](C)N(C)C(C)=O)[C@]1(C)O[C@H]1[C@H](C)[C@@H]1C[C@@](O)(NC(=O)O1)[C@H](OC)/C=C/C=C(\C)C2 [DM1, maytansine, reference compound] | relatively high apoptosis rate | relatively high apoptosis rate | found regardless of whether HER2 was expressed or not | not significantly different | expression of HER2 on the cell membrane was observed |  |  |  |  |  |  |  |  |  |  | 
2 | Aptamer-DM1: HER2-binding RNA aptamer (SEQ ID NO:1, 3′ thiol, 2′-O-methyl) linked via disulfide bonding to anticancer drug DM1 (GGGAGGACGAUGCGGGACUGUACGGGGCUCUGUGCAGACGACUCGCCCGA; 3' {SH}, sugars by position and backbone not given here; 2'-O-methyl modified, 3' thiol disulfide-linked to DM1) | low | high | detected only in the cells in which HER2 was expressed |  | cellular internalization of HER2 from the cell membrane was observed | significantly reduced | significantly reduced the tumor volume | strongly inhibited | significantly reduced | high apoptosis rate in the HER2-positive cell lines compared to the DM1-treated group | remarkably decreased | significantly reduced the tumor volume | considerably decreased | remarkably increased | significantly decreased only the growth of HER2-positive BT474 tumors | effectively induced apoptosis only in the HER2-positive BT474 tumors
